Assay results taken from US20240140895A1, “NOVEL AROMATIC MOLECULES” (XENIOPRO GmbH, priority 2018, published 2024).

Key:
Format in all cases: cell-based
[1] = system: LOU-NH91 cells (human lung squamous cell carcinoma cells); experiment: Proliferation assay (alamarBlue) with LOU-NH91 cells
Description: (§1) The antiproliferative activities of compounds falling under formula (Ia), (Tb) and (Ic), respectively, were investigated on cells or cell lines originating from a disorder of the haematopoietic system, including the myeloid cell compartment and the lymphoid cell compartment (T-cells and B-cells), the neuroendocrine system, the cervix, the breast, the ovaries, the lung, the gastrointestinal tract, and the mucosal epithelium, as well as from the skin epithelium and from the muscle. To this end, HL-60 cells, NB-4 cells, HH cells, RPMI-8402 cells, TANOUE cells, TT cells, HeLa cells, MDA-MB-231 cells, FU-OV-1 cells, LOU-NH91 cells, 23132/87 cells, CAL-27 cells, BHY cells, SCC-25 cells, A-431 cells, human primary epidermal keratinocytes (HPEK), and C2C12 cells were seeded into 96-well plates suitable for fluorescence assays (CORNING #3598) at following initial cell numbers: 1000 cells per well for HL-60; 1000 cells per well for NB-4; 5000 cells per well for HH; 5000 cells per well for RPMI-8402; 1500 cells per well for TANOUE; 9000 cells per well for TT; 2000 cells per well for HeLa; 3000 cells per well for MDA-MB-231; 3000 cells per well for FU-OV-1; 4000 cells per well for LOU-NH91; 2000 cells per well for 23132/87; 2000 cells per well for CAL-27; 1500 cells per well for BHY; 1500 cells per well for SCC-25; 700 cells per well for A-431; 1000 cells per well for HPEK; 500 cells per well for C2-C12. […] The readout was taken with a multi-well plate-reader in the fluorescence mode with applying a filter for excitation at 560 nm (band width 10 nm) and for emission at 590 nm (band width 10 nm). […]
(§2) The assays were performed in duplicate or more replicates of independent single experiments each containing a six-fold replicate for every condition. For every individual plate, the measured fluorescence intensity values of the conditions with compound treatment were normalized against the corresponding equally weighted arithmetic mean of the fluorescence intensity values of the six DMSO treated control wells in order to obtain the relative values to a baseline level of 1.0. […]

[2] = system: TT cells (human medullary thyroid carcinoma cells); experiment: Proliferation assay (alamarBlue) with TT cells
Description: as §1, §2

[3] = system: C2C12 cells (murine myoblast cells); experiment: Proliferation assay (alamarBlue) with C2C12 cells; conditions: Mus musculus, compound at 20 μM, read-out: Activity Range: weighted arithmetic mean (AVEw) of normalized fluorescence intensity, relative to DMSO basis level 1.0
Description: (§3) The antiproliferative activities of compounds falling under formula (Ia), (Tb) and (Ic), respectively, were investigated on cells or cell lines originating from a disorder of the haematopoietic system, including the myeloid cell compartment and the lymphoid cell compartment (T-cells and B-cells), the neuroendocrine system, the cervix, the breast, the ovaries, the lung, the gastrointestinal tract, and the mucosal epithelium, as well as from the skin epithelium and from the muscle. To this end, HL-60 cells, NB-4 cells, HH cells, RPMI-8402 cells, TANOUE cells, TT cells, HeLa cells, MDA-MB-231 cells, FU-OV-1 cells, LOU-NH91 cells, 23132/87 cells, CAL-27 cells, BHY cells, SCC-25 cells, A-431 cells, human primary epidermal keratinocytes (HPEK), and C2C12 cells were seeded into 96-well plates suitable for fluorescence assays (CORNING #3598) at following initial cell numbers: 1000 cells per well for HL-60; 1000 cells per well for NB-4; 5000 cells per well for HH; 5000 cells per well for RPMI-8402; 1500 cells per well for TANOUE; 9000 cells per well for TT; 2000 cells per well for HeLa; 3000 cells per well for MDA-MB-231; 3000 cells per well for FU-OV-1; 4000 cells per well for LOU-NH91; 2000 cells per well for 23132/87; 2000 cells per well for CAL-27; 1500 cells per well for BHY; 1500 cells per well for SCC-25; 700 cells per well for A-431; 1000 cells per well for HPEK; 500 cells per well for C2-C12. The cells were treated with compounds at indicated final concentrations (diluted from the 1000× stock-solutions in DMSO to a final DMSO concentration of 0.1% v/v in H2O (Water For Injection, WFI, Fisherscientific #10378939)) or with the empty carrier DMSO at 0.1% v/v as control for 5 days. At day 5 after starting the treatments the cells were subjected to the alamarBlue® Proliferation Assay (Bio-Rad Serotec GmbH, BUF012B) according to the protocol of the manufacturer. The readout was taken with a multi-well plate-reader in the fluorescence mode with applying a filter for excitation at 560 nm (band width 10 nm) and for emission at 590 nm (band width 10 nm). Control treatments for growth inhibition with commercial compounds such as Methotrexate (MTREX) and Resveratrol (RES) were included on every plate. Some of the test compounds of the present invention were obtained and applied as their salts. According cases are indicated in the column “Specification” in Table 30 to Table 62 and by their sum formula in Table 63.
(§4) The assays were performed in duplicate or more replicates of independent single experiments each containing a six-fold replicate for every condition. For every individual plate, the measured fluorescence intensity values of the conditions with compound treatment were normalized against the corresponding equally weighted arithmetic mean of the fluorescence intensity values of the six DMSO treated control wells in order to obtain the relative values to a baseline level of 1.0.
(§5) Two independent outlier analyses were performed according to the methods by Peirce and Chauvenet (Ross, Journal of Engineering Technology 2003, 1-12). Outliers confirmed by at least one of the methods were excluded from the calculations but not more than one value out of six per compound within a single experiment. The weighted arithmetic mean (here abbreviated as AVEw) for each compound was calculated from the normalized values over all independent replicates of the single experiments comprising the six replicates each. The corresponding standard deviation for the weighted arithmetic mean was calculated according to the method described by Bronstein et al. (Bronstein, Semendjajew, Musiol, Muhlig, Taschenbuch der Mathematik, 5th edition 2001 (German), publisher: Verlag Harri Deutsch, Frankfurt am Main and Thun) and was combined with the Gauβ′ error propagation associated with the performed calculation for the normalization. The resulting standard deviation is herein referred to as “combined standard deviation”. […]

[4] = system: SCC-25 cells (human tongue squamous cell carcinoma cells); experiment: Proliferation assay (alamarBlue) with SCC-25 cells
Description: as §3, §4, §5

[5] = system: NB-4 cells (human acute promyelocytic leukemia cells); experiment: Proliferation assay (alamarBlue) with NB-4 cells
Description: as §3, §4, §5

[6] = system: RPMI-8402 cells (human T cell acute lymphoblastic leukemia cells); experiment: Proliferation assay (alamarBlue) with RPMI-8402 cells
Description: as §3, §4, §5

[7] = system: FU-OV-1 cells (human ovarian carcinoma cells); experiment: Proliferation assay (alamarBlue) with FU-OV-1 cells
Description: as §1, §2

[8] = system: BHY cells (human oral squamous cell carcinoma cells); experiment: Proliferation assay (alamarBlue) with BHY cells; conditions: read-out: Activity Range: weighted arithmetic mean (AVEw) of normalized fluorescence intensity relative to DMSO basis level 1.0
Description: as §3, §4, §5

[9] = system: TANOUE cells (human B cell leukemia cells); experiment: Proliferation assay (alamarBlue) with TANOUE cells
Description: as §3, §4, §5

[10] = system: MDA-MB-231 cells (human breast carcinoma cells); experiment: Proliferation assay (alamarBlue) with MDA-MB-231 cells
Description: as §3, §4, §5

[11] = system: HeLa cells (human cervical adenocarcinoma cells); experiment: Proliferation assay (alamarBlue) with HeLa cells
Description: as §1, §2

[12] = system: HL-60 cells (human acute myeloid leukemia cells); experiment: Proliferation assay (alamarBlue) with HL-60 cells
Description: as §3, §4, §5

[13] = system: A-431 cells (human epidermoid squamous cell carcinoma cells); experiment: Proliferation assay (alamarBlue) with A-431 cells
Description: as §3, §4, §5

[14] = system: HH cells (human cutaneous T-cell lymphoma cells); experiment: Proliferation assay (alamarBlue) with HH cells; conditions: Table 34, compound at 20 μM, read-out: Activity Range (AVEw, weighted arithmetic mean of normalized fluorescence intensity, DMSO = 1.0)
Description: as §3, §4, §5

[15] = Homo sapiens, read-out: Activity Range: weighted arithmetic mean (AVEw) of normalized fluorescence intensity relative to DMSO basis level 1.0

Compound: Oc1ccc(C=Cc2cc(O)cc(O)c2)cc1 [RES, resveratrol, reference compound]
- Activity Range: weighted arithmetic mean (AVEw) of normalized fluorescence intensity relative to DMSO basis level 1.0 ([1]; 20 μM): 0.9 ± 0.1
- Activity Range: weighted arithmetic mean (AVEw) of normalized fluorescence intensity relative to DMSO basis level 1.0 ([1]; control at 40 μM): 0.7 ± 0.0
- Activity Range: weighted arithmetic mean (AVEw) of normalized fluorescence intensity relative to DMSO basis level 1.0 ([2]; compound at 20 μM): 0.9 ± 0.0
- Activity Range: weighted arithmetic mean (AVEw) of normalized fluorescence intensity relative to DMSO basis level 1.0 ([2]; control at 40 μM): 0.7 ± 0.0
- activity at 20 µM [3]: 80%
- Activity Range: weighted arithmetic mean (AVEw) of normalized fluorescence intensity relative to DMSO basis level 1.0 ([4]; 20 μM): 0.4 ± 0.1
- activity at 20 µM [4, 15]: 40 ± 10%
- activity at 20 µM ([5]; Homo sapiens, Table 32, compound at 20 μM, read-out: Activity Range (AVEw, weighted arithmetic mean of normalized fluorescence intensity, DMSO = 1.0)): 10%
- Activity Range (AVEw, weighted arithmetic mean of normalized fluorescence intensity, DMSO = 1.0) ([5]; Table 33, compound at 20 μM): 0.1 ± 0.0
- Activity Range: weighted arithmetic mean (AVEw) of normalized fluorescence intensity relative to DMSO basis level 1.0 ([6]; 20 μM): 0.6 ± 0.0
- activity at 20 µM [6, 15]: 60%
- Activity Range: weighted arithmetic mean (AVEw) of normalized fluorescence intensity relative to DMSO basis level 1.0 ([7]; 20 μM): 0.7 ± 0.0
- Activity Range: weighted arithmetic mean (AVEw) of normalized fluorescence intensity relative to DMSO basis level 1.0 ([7]; control at 40 μM): 0.4 ± 0.0
- activity at 20 µM [8]: 50 ± 10%
- Activity Range: weighted arithmetic mean (AVEw) of normalized fluorescence intensity relative to DMSO basis level 1.0 ([9]; 20 μM): 0.1 ± 0.0
- activity at 20 µM ([9]; Homo sapiens, B-cell, read-out: Activity Range: weighted arithmetic mean (AVEw) of normalized fluorescence intensity relative to DMSO basis level 1.0): 10%
- Activity Range: weighted arithmetic mean (AVEw) of normalized fluorescence intensity relative to DMSO basis level 1.0 ([10]; 20 μM): 0.6 ± 0.0
- activity at 20 µM [10, 15]: 60%
- Activity Range: weighted arithmetic mean (AVEw) of normalized fluorescence intensity relative to DMSO basis level 1.0 ([11]; compound at 20 μM): 0.9 ± 0.0
- Activity Range: weighted arithmetic mean (AVEw) of normalized fluorescence intensity relative to DMSO basis level 1.0 ([11]; control at 40 μM): 0.4 ± 0.1
- activity at 20 µM ([12]; Homo sapiens, Table 30, compound at 20 μM, read-out: Activity Range (AVEw, weighted arithmetic mean of normalized fluorescence intensity, DMSO = 1.0)): 40 ± 10%
- Activity Range (AVEw, weighted arithmetic mean of normalized fluorescence intensity, DMSO = 1.0) ([12]; Table 31, compound at 20 μM): 0.4 ± 0.1
- activity at 20 µM ([13]; Homo sapiens, 20 μM, read-out: Activity Range: weighted arithmetic mean (AVEw) of normalized fluorescence intensity relative to DMSO basis level 1.0): 60%
- Activity Range: weighted arithmetic mean (AVEw) of normalized fluorescence intensity relative to DMSO basis level 1.0 ([13]; compound at 20 μM): 0.6 ± 0.0
- Activity Range: weighted arithmetic mean (AVEw) of normalized fluorescence intensity relative to DMSO basis level 1.0 ([13]; control at 40 μM): 0.2 ± 0.0
- activity at 20 µM [14]: 60 ± 10%
